According to US20180148418A1, “AMIDO-SUBSTITUTED CYCLOHEXANE DERIVATIVES” (Bayer Pharma Aktiengesellschaft, priority 2015, published 2018):

Legend:
[1] = target: T1, TNKS1 (Homo sapiens, UniProt O95271); experiment: TNKS1 Assay B (auto-parsylation, [3H]-NAD+ SPA); assay type: biochemical; settings: 6 nM TNKS1, auto-parsylation, over night at room temperature
T1 construct: purchased BPS Bioscience, San Diego, USA 80579 (TNKS1 Histone Ribosylation Assay Kit)
T1 sequence (O95271 1-1327): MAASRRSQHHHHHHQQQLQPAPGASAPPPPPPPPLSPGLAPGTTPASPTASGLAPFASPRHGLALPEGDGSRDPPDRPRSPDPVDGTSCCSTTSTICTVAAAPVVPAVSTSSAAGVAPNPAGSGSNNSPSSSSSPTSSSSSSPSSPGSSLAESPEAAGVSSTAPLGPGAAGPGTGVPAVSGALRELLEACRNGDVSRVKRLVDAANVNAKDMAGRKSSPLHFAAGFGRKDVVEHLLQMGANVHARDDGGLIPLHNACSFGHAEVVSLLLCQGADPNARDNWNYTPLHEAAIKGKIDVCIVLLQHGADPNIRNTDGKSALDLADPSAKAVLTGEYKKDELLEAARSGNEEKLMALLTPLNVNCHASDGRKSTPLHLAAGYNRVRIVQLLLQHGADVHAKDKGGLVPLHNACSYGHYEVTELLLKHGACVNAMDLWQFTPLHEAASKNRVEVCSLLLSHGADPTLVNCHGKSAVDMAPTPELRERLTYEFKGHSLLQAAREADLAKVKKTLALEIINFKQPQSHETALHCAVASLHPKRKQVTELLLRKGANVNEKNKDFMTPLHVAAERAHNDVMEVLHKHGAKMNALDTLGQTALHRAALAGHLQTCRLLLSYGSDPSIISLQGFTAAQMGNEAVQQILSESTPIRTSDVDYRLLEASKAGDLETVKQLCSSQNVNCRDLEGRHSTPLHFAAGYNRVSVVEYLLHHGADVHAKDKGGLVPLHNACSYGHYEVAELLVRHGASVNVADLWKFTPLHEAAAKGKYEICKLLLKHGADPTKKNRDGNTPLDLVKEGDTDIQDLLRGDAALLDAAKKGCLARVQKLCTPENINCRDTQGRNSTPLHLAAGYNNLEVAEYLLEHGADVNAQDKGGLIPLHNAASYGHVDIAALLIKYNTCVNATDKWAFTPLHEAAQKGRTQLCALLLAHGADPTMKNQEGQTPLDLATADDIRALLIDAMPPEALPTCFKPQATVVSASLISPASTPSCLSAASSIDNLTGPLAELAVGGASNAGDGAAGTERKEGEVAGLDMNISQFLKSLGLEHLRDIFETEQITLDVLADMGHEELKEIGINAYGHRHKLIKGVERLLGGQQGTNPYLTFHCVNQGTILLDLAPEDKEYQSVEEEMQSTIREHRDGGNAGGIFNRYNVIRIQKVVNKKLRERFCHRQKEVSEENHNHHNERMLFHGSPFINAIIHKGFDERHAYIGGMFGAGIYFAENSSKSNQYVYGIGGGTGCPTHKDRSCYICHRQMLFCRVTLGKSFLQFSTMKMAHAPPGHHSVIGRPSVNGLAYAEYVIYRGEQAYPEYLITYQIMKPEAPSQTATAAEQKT

[2] = test system: wildtype Wnt signaling cascade; experiment: HEK293 TOP assay (Super TopFlash luciferase reporter, Wnt-3a stimulated); assay type: cell-based; settings: Homo sapiens, HEK293, 16 h, HEK293 TOP reporter cells, Wnt3a at EC50, 16 hours
Method in brief: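 Compound series (50 μM down to 15 nM, 3.16-fold) diluted from DMSO 50-fold into CAFTY buffer, pH 7.4, 2 mM Ca^2+, 0.01% BSA, applied to Wnt-3a-stimulated HEK293 TopFlash and FOP reporter lines in parallel. Cells seeded 10000/well 24 h before; luciferase signal measured.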

| SMILES | IC50 [1] | IC50 [2] |
| --- | --- | --- |
| O=C(N[C@H]1CC[C@@]2(CCN(c3cccc(Cl)c3)C2=O)CC1)c1[nH]cnc1C(=O)N1CCOCC1 [Example 286, N-[(trans)-2-(3-chlorophenyl)-1-oxo-2-azaspiro[4.5]dec-8-yl]-4-(morpholin-4-ylcarbonyl)-1H-imidazole-5-carboxamide] | 8600 nM | 28 nM |
| O=C(NC1CCC(F)(C(=O)Nc2ccc(F)cc2Cl)CC1)c1cnn2cccnc12 (single isomer, unassigned) [Example 365, N-{4-[(2-chloro-4-fluorophenyl)carbamoyl]-4-fluorocyclohexyl}pyrazolo[1,5-a]pyrimidine-3-carboxamide (single isomer)] | > 10000 nM | 21000 nM |
| Cc1c(C(C)O)cnc2c(C(=O)N[C@H]3CC[C@H](C(=O)Nc4ccc(F)cc4Cl)CC3)cnn12 (stereo partly drawn) [Example 58, N-{trans-4-[(2-chloro-4-fluorophenyl)carbamoyl]cyclohexyl}-6-(1-hydroxyethyl)-7-methylpyrazolo[1,5-a]pyrimidine-3-carboxamide] | 740 nM | 1100 nM |
| O=C(N[C@H]1CC[C@H](C(=O)Nc2ccc(F)cc2Cl)CC1)c1cnc2ccc(O)nn12 [Example 360, N-{trans-4-[(2-chloro-4-fluorophenyl)carbamoyl]cyclohexyl}-6-hydroxyimidazo[1,2-b]pyridazine-3-carboxamide] | 2500 nM | 10000 nM |
| CNC(=O)c1[nH]cnc1C(=O)N[C@H]1CC[C@H](C(=O)Nc2ccc(F)cc2Cl)CC1(F)F (single isomer, unassigned) [Example 33, N^4-{(trans)-4-[(2-chloro-4-fluorophenyl)carbamoyl]-2,2-difluorocyclohexyl}-N^5-methyl-1H-imidazole-4,5-dicarboxamide] | 720 nM | 700 nM |

Stronger by IC50 [1], values ahead:

| IC50 [1] | IC50 [2] | SMILES |
| --- | --- | --- |
| 170 nM | 140 nM | O=C(NC[C@@H]1CCCO1)c1nc[nH]c1C(=O)N[C@H]1CC[C@H](C(=O)Nc2ccc(F)cc2Cl)CC1 [Example 79, N^5-{trans-4-[(2-chloro-4-fluorophenyl)carbamoyl]cyclohexyl}-N^4-[(2S)-tetrahydrofuran-2-ylmethyl]-1H-imidazole-4,5-dicarboxamide] |
| 62 nM | 90 nM | O=C(NC[C@H]1CCCO1)c1nc[nH]c1C(=O)N[C@H]1CC[C@H](C(=O)Nc2ccc(F)cc2Cl)CC1 [Example 80, N^5-{trans-4-[(2-chloro-4-fluorophenyl)carbamoyl]cyclohexyl}-N^4-[(2R)-tetrahydrofuran-2-ylmethyl]-1H-imidazole-4,5-dicarboxamide] |
| 57 nM | 21 nM | Cc1nc2c(C(=O)N[C@H]3CC[C@H](C(=O)Nc4c(F)cc(F)cc4Cl)CC3)cnn2c2c1CCC2 [Example 363, N-{trans-4-[(2-chloro-4,6-difluorophenyl)carbamoyl]cyclohexyl}-5-methyl-7,8-dihydro-6H-cyclopenta[e]pyrazolo[1,5-a]pyrimidine-3-carboxamide] |
| 37 nM | 270 nM | CC(C)NCCNC(=O)c1nc[nH]c1C(=O)N[C@H]1CC[C@H](C(=O)Nc2ccc(F)cc2Cl)CC1 [Example 77, N^5-{trans-4-[(2-chloro-4-fluorophenyl)carbamoyl]cyclohexyl}-N^4-[2-(isopropylamino)ethyl]-1H-imidazole-4,5-dicarboxamide] |
| 10 nM | 24 nM | O=C(N[C@H]1CC[C@H](C(=O)Nc2ccc(F)cc2Cl)CC1)c1[nH]cnc1C(=O)N1CC2(CCS2(=O)=O)C1 [Example 22, N-{trans-4-[(2-chloro-4-fluorophenyl)carbamoyl]cyclohexyl}-4-[(1,1-dioxido-1-thia-6-azaspiro[3.3]hept-6-yl)carbonyl]-1H-imidazole-5-carboxamide] |
| 6.7 nM | 1.4 nM | CNC(=O)c1nc[nH]c1C(=O)N[C@H]1CC[C@@]2(CCN(c3cc(C)c(F)cc3Cl)C2=O)CC1 [Example 288, N^5-[(trans)-2-(2-chloro-4-fluoro-5-methylphenyl)-1-oxo-2-azaspiro[4.5]dec-8-yl]-N^4-methyl-1H-imidazole-4,5-dicarboxamide] |
